Experimental data: EP4563571A1, “PRMT5 INHIBITORS” (Beijing Earthwise Technology Co., Ltd., priority 2022, dated 2024)
Where two headings read alike, the source gives them in different places.

How the values were obtained:
HCT116 cells = test: Anti-proliferation assay on cells (Cell-Titer Glo, 10 days); type: cell-based; conditions: for Selectivity multiple of HCT116^MTAP WT GI50/ HCT116^MTAP Deletion GI50: ratio of GI50 values
Procedure: Assay example 1: Method of anti-proliferation assay on cells
HCT116^MTAP Deletion cells were from Pharmaron (China); HCT116 cells were from ATCC; McCoy's 5A medium was purchased from Invitrogen (USA); penicillin-streptomycin and fetal bovine serum were purchased from Gibco (USA); a 384-well plate was purchased from PerkinElmer (USA); and Cell-Titer Glo reagent was purchased from Promega (USA).
Compound dissolution: All the compounds were dissolved in dimethyl sulfoxide (DMSO) and then stored. The compounds were stored at room temperature in a dry condition for 3 months for short term storage or at -20 °C for long term storage.
Cell culture and passaging
The cells were cultured strictly in accordance with ATCC requirements. The cell culture medium (McCoy's 5A medium + 10% fetal bovine serum + 1% penicillin + streptomycin) was transferred to a 15 mL centrifuge tube and centrifuged at 1000 rpm for 5 min. The supernatant was removed. The cells were resuspended with complete culture medium, inoculated into a culture dish at the required density, and cultured in an incubator at 37 °C, 95% humid air, and 5% carbon dioxide. The culture medium was replenished or the cells were passaged every 2-3 days depending on the cell growth condition.
Cell proliferation activity assay
When the confluency of cells in the culture dish reached about 90%, the cells were washed twice with PBS, and then treated with trypsin to become single cells. The cells were counted, and 40µl of the cells was inoculated into each well of a 384-well plate (50 cells/well). The plate was equilibrated at 37 °C and 5% carbon dioxide for 10 to 15 minutes. The compounds were injected into the 384-well plate using Echo550, and positive control and negative control (0.1% DMSO) were set up. Each compound was subjected to a 3-fold dilution, resulting in 10 concentration gradients, in duplicate, and the content of DMSO was 0.1%. The 384-well plate was incubated in a cell culture incubator for 10 days.
Then, 40 µl of cell proliferation assay reagent (CTG) was added to the 384-well plate, and the plate was shaken to mix well. Then, the 384-well plate was incubated at 37 °C and 5% carbon dioxide in the dark for 30 minutes. The data were read using the Envision multifunctional microplate reader. […] According to the different drug concentrations and their corresponding inhibition rates, the GI50 curve was drawn using GraphPad 8.0 software. The data were analyzed, and the final IC50 value was obtained.
In addition, the compounds of the present disclosure also have selectivity for mutant HCT116 cells. […] The selectivity data of representative compounds are shown in Table 2: Table 2 Selectivity data of representative compounds

[1] = test system: HCT116^MTAP Deletion cells; test: as above; type: cell-based
How it was run: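 HCT116^MTAP Deletion cells seeded at 50 cells/well and exposed to 10-point 3-fold compound dilutions in duplicate (0.1% DMSO) for 10 days at 37 °C. Viability read by CellTiter-Glo luminescence; IC50 derived from GI50 curves of concentration versus inhibition.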

[2] = HCT116^MTAP Deletion cells, 10 days incubation, CTG readout, read-out: HCT116^MTAP Deletion GI50
[3] = 240 h, HCT116^MTAP Deletion cells, 10 days incubation, CTG readout, read-out: HCT116^MTAP Deletion GI50

| SMILES | Selectivity multiple of HCT116^MTAP WT GI50/ HCT116^MTAP Deletion GI50 (HCT116 cells) | GI50 [1, 3] [nM] | other results |
| --- | --- | --- | --- |
| CN(C(=O)C(=O)Nc1cnc(N)c2c1cnn2C)C1COCc2cc(Cl)c(Cl)cc21 (single isomer, unassigned) [Example 163-P1] | 94 | – | – |
| CC1OCC(N(C)C(=O)C(=O)Nc2cnc(N)c3c2cnn3C)c2ccc(C(F)(F)F)cc21 (single isomer, unassigned) [Example 187-P1] | 78 | – | – |
| CC1OCC(N(C)C(=O)C(=O)Nc2cnc(N)c3c2cnn3C)c2ccc(C(F)(F)F)cc21 (single isomer, unassigned) [Example 187-P2] | 59 | – | – |
| C[C@H](c1ncccn1)N(Cc1ccc(C(F)(F)F)cn1)C(=O)C(=O)Nc1cnc(N)c2cnn(C)c12 [Example 34] | – | – | GI50 [1, 2]: 100 to 1000 nM; GI50 ([1]; read-out: GI50 for HCT116^MTAP Deletion): ≤ 100 nM; selectivity for mutant HCT116 cells (HCT116 cells; HCT116 GI50 versus HCT116^MTAP Deletion GI50, text b891): more than 300 times; GI50 (HCT116 cells; HCT116 cells): 1000 to 10000 nM |
| CCC(C)N(Cc1ccc(-c2ccn(C)n2)cn1)C(=O)C(=O)Nc1cnc(N)c2c1cnn2C (centres unmarked) [Example 88] | 161 | < 10 | – |
| CN(C(=O)C(=O)Nc1cnc(N)c2c1cnn2C)C1COc2cc(C(F)(F)F)ccc21 (centres unmarked) [Example 89] | 160 | – | GI50 [1, 2]: < 10 nM |
| CCC(C)N(Cc1ccc(-c2cnn(C)c2)cn1)C(=O)C(=O)Nc1cnc(N)c2c1cnn2C (centres unmarked) [Example 90] | 119 | < 10 | – |
| CN(C(=O)C(=O)Nc1cnc(N)c2c1cnn2C)C1COCc2cc(-c3ccn(C)n3)ccc21 (centres unmarked) [Example 93] | 244 | 10 to 100 | – |
| CN(C(=O)C(=O)Nc1cnc(N)c2c1cnn2C)C1COCc2cc(Br)ccc21 (centres unmarked) [Example 94] | 144 | < 10 | – |
| CN(C(=O)C(=O)Nc1cnc(N)c2c1cnn2C)C1COCc2cc(-c3cccnc3)ccc21 (centres unmarked) [Example 95] | 224 | < 10 | – |
| Cn1ncc2c(NC(=O)C(=O)N(C3CC3)C3COCc4cc(C(F)(F)F)ccc43)cnc(N)c21 (centres unmarked) [Example 98] | 106 | < 10 | – |
| CN(C(=O)C(=O)Nc1cnc(N)c2c1cnn2C)C1COCc2cc(-c3cnn(C)c3)ccc21 (centres unmarked) [Example 99] | 285 | – | GI50 [1, 2]: < 10 nM |
| CN(C(=O)C(=O)Nc1cnc(N)c2c1cnn2C)C1COCc2cc(C3=CCOCC3)ccc21 (centres unmarked) [Example 100] | 179 | – | GI50 [1, 2]: < 10 nM |
| CN(C(=O)C(=O)Nc1cnc(N)c2c1cnn2C)C1COCc2cc(C3CC3)ccc21 (centres unmarked) [Example 104] | 144 | 10 to 100 | – |
| CC(C)C(C)N(Cc1ccc(C(F)(F)F)cn1)C(=O)C(=O)Nc1cnc(N)c2c1cnn2C (centres unmarked) [Example 110-P1] | 146 | < 10 | – |
| CN(C(=O)C(=O)Nc1cnc(N)c2c1cnn2C)C1COCc2cc(C#N)ccc21 (centres unmarked) [Example 111] | 354 | < 10 | – |
| CCC(C)N(Cc1ccc(OC(F)(F)F)cn1)C(=O)C(=O)Nc1cnc(N)c2c1cnn2C (centres unmarked) [Example 113] | 125 | < 10 | – |
| CN(C(=O)C(=O)Nc1cnc(N)c2c1cnn2C)C1COCc2cc(-c3cnn(C)c3)ccc21 (centres unmarked) [Example 124-P1] | 215 | – | GI50 [1, 2]: < 10 nM |
| CN(C(=O)C(=O)Nc1cnc(N)c2c1cnn2C)C1COCc2cc(C3=CCC(F)(F)CC3)ccc21 (centres unmarked) [Example 157] | 193 | < 10 | – |
| CN(C(=O)C(=O)Nc1cnc(N)c2c1cnn2C)C1COc2cc(-c3ccnn3C)ccc21 (centres unmarked) [Example 161] | 169 | – | GI50 [1, 2]: < 10 nM |
| CN(C(=O)C(=O)Nc1cnc(N)c2c1cnn2C)C1COc2cc(-c3cnc(C(F)(F)F)s3)ccc21 (centres unmarked) [Example 164] | 337 | 10 to 100 | – |
| Cc1cc(-c2ccc3c(c2)OCC3N(C)C(=O)C(=O)Nc2cnc(N)c3c2cnn3C)on1 (centres unmarked) [Example 165] | 295 | 10 to 100 | – |
| CN(C(=O)C(=O)Nc1cnc(N)c2c1cnn2C)C1COCc2cc(C(F)(F)F)c(F)cc21 (centres unmarked) [Example 167] | 61 | < 10 | – |
| CN(C(=O)C(=O)Nc1cnc(N)c2c1cnn2C)C1COCc2c1ccc(Cl)c2Cl (centres unmarked) [Example 168-P1] | 147 | – | – |
| Cc1ncc(-c2ccc3c(c2)COCC3N(C)C(=O)C(=O)Nc2cnc(N)c3c2cnn3C)s1 (centres unmarked) [Example 181-P1] | 247 | – | – |

| SMILES | Selectivity multiple of HCT116^MTAP WT GI50/ HCT116^MTAP Deletion GI50 (HCT116 cells) | GI50 [1, 3] [nM] | other results |
| --- | --- | --- | --- |
| CN(C(=O)C(=O)Nc1cnc(N)c2c1cnn2C)C1COc2cc(Cl)c(Cl)cc21 (centres unmarked) [Example 186-P1] | 210 | – | – |
| CN(C(=O)C(=O)Nc1cnc(N)c2c1cnn2C)C1COc2cc(-c3ccccc3F)ccc21 (centres unmarked) [Example 214] | – | < 10 | – |
| CN(C(=O)C(=O)Nc1cnc(N)c2c1cnn2C)C1COCc2cc(-c3ccccc3F)ccc21 (centres unmarked) [Example 215] | – | < 10 | – |
| CN(C(=O)C(=O)Nc1cnc(N)c2c1cnn2C)C1COc2cc(-c3ccccc3)ccc21 (centres unmarked) [Example 216] | – | 10 to 100 | – |
| CN(C(=O)C(=O)Nc1cnc(N)c2c1cnn2C)C1COCc2cc(C(C)(C)C)ccc21 (centres unmarked) [Example 217] | – | < 10 | – |
| CN(C(=O)C(=O)Nc1cnc(N)c2c1cnn2C)C1COCc2cc(C3(C#N)CC3)ccc21 (centres unmarked) [Example 218] | – | < 10 | – |
| CN(C(=O)C(=O)Nc1cnc(N)c2c1cnn2C)C1COCc2nc(-c3ccccc3)ccc21 (centres unmarked) [Example 219] | – | < 10 | – |
| CN(C(=O)C(=O)Nc1cnc(N)c2c1cnn2C)C1COCc2nc(-c3ccnn3C3CC3)ccc21 (centres unmarked) [Example 220] | – | < 10 | – |
| Cc1ncc(-c2cc3c(cn2)C(N(C)C(=O)C(=O)Nc2cnc(N)c4c2cnn4C)COC3)s1 (centres unmarked) [Example 222] | – | 10 to 100 | – |
| CN(C(=O)C(=O)Nc1cnc(N)c2c1cnn2C)C1COCc2nc(-c3ccccc3F)ccc21 (centres unmarked) [Example 225] | – | < 10 | – |
| CN(C(=O)C(=O)Nc1cnc(N)c2c1cnn2C)C1COCc2cc(-c3ccccc3)ccc21 (centres unmarked) [Example 226] | – | < 10 | – |
| CN(C(=O)C(=O)Nc1cnc(N)c2c1cnn2C)C1COCc2cc(S(C)(=O)=O)ccc21 (centres unmarked) [Example 227] | – | 10 to 100 | – |
| CN(C(=O)C(=O)Nc1cnc(N)c2c1cnn2C)C1COc2cc(-c3nncn3C3CC3)ccc21 (centres unmarked) [Example 228] | – | 100 to 1000 | – |
| Cc1nc(-c2ccc3c(c2)OCC3N(C)C(=O)C(=O)Nc2cnc(N)c3c2cnn3C)no1 (centres unmarked) [Example 229] | – | 10 to 100 | – |
| CC(C)c1ccc2c(c1)OCC2N(C)C(=O)C(=O)Nc1cnc(N)c2c1cnn2C (centres unmarked) [Example 230] | – | < 10 | – |
| CN(C(=O)C(=O)Nc1cnc(N)c2c1cnn2C)C1COCc2cc(-c3ccnn3C3CC3)ccc21 (centres unmarked) [Example 232] | – | < 10 | – |
| Cc1ccc2c(c1)OCC2N(C)C(=O)C(=O)Nc1cnc(N)c2c1cnn2C (centres unmarked) [Example 233] | – | – | GI50 [1, 2]: 10 to 100 nM |
| CN(C(=O)C(=O)Nc1cnc(N)c2c1cnn2C)C1COc2ccccc2C1 (centres unmarked) [Example 234] | – | 100 to 1000 | – |
| CN(C(=O)C(=O)Nc1cnc(N)c2c1cnn2C)C1COc2cc(-c3cnc(C4CC4)s3)ccc21 (centres unmarked) [Example 236] | – | – | GI50 [1, 2]: < 10 nM |
| CN(C(=O)C(=O)Nc1cnc(N)c2c1cnn2C)C1COCc2cc(C3(C(F)(F)F)CC3)ccc21 (centres unmarked) [Example 237] | – | < 10 | – |
| CN(C(=O)C(=O)Nc1cnc(N)c2c1cnn2C)C1COCc2cc(C(F)(F)C(F)(F)F)ccc21 (centres unmarked) [Example 238] | – | < 10 | – |
| CN(C(=O)C(=O)Nc1cnc(N)c2c1cnn2C)C1COc2cc(-c3ccc(C4CC4)nc3)ccc21 (centres unmarked) [Example 239] | – | < 10 | – |
| CC#Cc1ccc2c(c1)OCC2N(C)C(=O)C(=O)Nc1cnc(N)c2c1cnn2C (centres unmarked) [Example 240] | – | 10 to 100 | – |
| CC1OCC(N(C)C(=O)C(=O)Nc2cnc(N)c3c2cnn3C)c2ccc(C(F)(F)F)cc21 (centres unmarked) [compound 187] | – | – | GI50 [1, 2]: < 10 nM |
